The results in this text go back to US20230382895A1, “CRYSTALLINE FORM III OF MELANOCORTIN RECEPTOR AGONIST COMPOUND AND PREPARATION METHOD THEREFOR” (LG CHEM, LTD., priority 2020, published 2023).

Structures are written as SMILES. “Also recorded” adds a separate entry of the source. Structures can show the parent of a compound that is named as a salt.

The data set can be described thus: Stability assessment by HPLC after storage under accelerated (40° C., 75% RH, open) or harsh (80° C., sealed) condition. Type of data set: physicochemical. The conditions noted are these: for Stability (HPLC), Open AOC: open state, accelerated condition (40° C., 75% RH); for Stability (HPLC), Closed STR: sealed state, harsh condition, oven at 80° C. The procedure: About 10-30 mg of the sample was stored for 4 weeks in an open state under the accelerated condition (40° C., 75% RH) or in a sealed state under the harsh condition in an oven at 80° C. [table]

For the compound `CC(C)C(=O)N([C@H]1C[C@@H](C(=O)N2CCOCC2)N(C(=O)[C@@H]2CN(C(C)(C)C)C[C@H]2c2ccc(Cl)cc2)C1)[C@H]1CC[C@@H](C)CC1` [Example 1, Is7-((3S,5S)-1-((3S,4R)-1-(tert-butyl)-4-(4-chlorophenyl)pyrrolidine-3-carbonyl)-5-(morpholine-4-carbonyl)pyrrolidin-3-yl)-N-((is, 4R)-4-methylcyclohexyl) isobutyramide hydrochloride], the “Chemical stability for 4 weeks” value (4 weeks, accelerated condition (40° C., 75% RH) and harsh condition (80° C.), listed as crystalline form III, hydrochloride) is “showed chemical stability; also recorded: exhibited chemical stability”. Further, the “Stability (HPLC), Initial” value (Initial, before storage, in % (unit assumed)) stood at 99.68. Further, under “Week 2, in % (unit assumed)”, the “Stability (HPLC), Open AOC” value is 89.27 and the “Stability (HPLC), Closed STR” value turned out to be 99.11. For the same compound, under “Week 4, in % (unit assumed)”, the “Stability (HPLC), Open AOC” value stood at 99.26 and the “Stability (HPLC), Closed STR” value came out at 98.76.
